Legend:
[1] = Two stage 'gastric transfer' non-sink biorelevant dissolution test; assay type: physicochemical; settings: for Cmax FaSSIF: intestinal stage FaSSIF pH 6.8; for AUC35-210 FaSSIF: 35-210 minutes in FaSSIF; for C210: concentration at 210 minutes
Experimental: Biorelevant drug dissolution performance for bulk API and subsequent ASDs was evaluated by Patheon's two stage ‘gastric transfer’ non-sink dissolution test, which simulates pH and bile salt concentrations for both gastric and intestinal exposure in a simple to perform assay. Pre-weighed powder is briefly suspended in media (e.g. by 10 sec vortex mixing with 4.0 mL media) and transferred to a pre-heated (37° C.) volume of 50 mL of 0.1N HCl (aq) pH ˜1.0, without pepsin or bile salts), in a USP Type 2 mini-vessel (100 mL total vessel volume) while stirring (paddles) at 100 rpm. After 30 minutes of gastric pH exposure, an equal volume of PBS buffered, 2× concentrated fasted-state simulated intestinal fluid (FaSSIF) is added to the HCl, resulting in a final pH of 6.8 in FaSSIF (100 mM PBS containing 2.24 mg/mL FaSSIF/FeSSIF/FaSSGF powder (Biorelevant Inc.) in a total volume of 100 mL. Aliquots (1.0 mL) of dissolution media are taken at the following time points: 10, 25, 35, 50, 70, 120 and 210 minutes. The first two aliquots are taken from the simulated gastric media, with the remaining five aliquots from the intestinal media. Aliquots are spun-down (13000 rpm) to pellet out undissolved solids, and the supernatant sampled and further diluted in an appropriate diluent to determine API total drug concentration (e.g. free and colloidal/polymer-bound drug in solution) utilizing a suitable HPLC method. The volume of FaSSIF added is adjusted to account for the sampling volume removed prior to gastric transfer (typically 4×1.0 mL). Initial API concentration in dissolution samples was determined utilizing a HPLC method.
The dissolution performance of the feasibility SDIs and bulk APL-101 was tested in a biorelevant non-sink dissolution experiment as described in EXAMPLE 1. The design of this experiment is to rank order and select lead formulations. […] 20% and 33% active HPMCAS-H and 20% active HPMC-E3LV and PVP-VA based formulations were nominated as the lead formulations.

[2] = Glass transition temperature (Tg) by modulated DSC; assay type: physicochemical; settings: MDSC
Experimental: DSC was performed using a TA Instruments Discovery DSC2500 differential scanning calorimeter equipped with a TA instruments Refrigerated Cooling System 90 operating in either modulated or ramp mode. DSC was used to measure thermodynamic events and characteristics of APL-101 bulk API and subsequent Spray Dried Intermediates (SDIs). Events observed include the glass transition temperature (Tg) defined as the temperature at which amorphous materials transition from a low mobility glassy state to a high mobility rubbery state, cold crystallization (Tc), defined as a crystallization event at a temperature lower than the melt temperature, and melting temperature (Tm). SDI samples were placed in non-hermetic aluminum pans and heated at a constant rate of 2.0° C./min over a 25-200° C. temperature range. The system was purged by nitrogen flow at 50 mL/min to ensure inert atmosphere through the course of measurement. APL-101 was initially analyzed by standard DSC with a heating rate of 10° C./min ramping up to 221° C. […] The resulting amorphous API was analyzed by modulated DSC to determine the glass transition temperature. […]
Thermal properties of bulk APL-101 were measured by DSC. Three API lots were tested, and it was determined that there were two API forms, Forms A and B, both of which are thought to be hydrates. […]

Row | dissolution performance ([1]; gastric and intestinal media, in words) | Cmax FaSSIF ([1]; Table 3, feasibility SDIs) [μgA/mL] | AUC35-210 FaSSIF ([1]; Table 3) [min*μgA/mL] | C210 ([1]; Table 3) [μgA/mL] | Cmax FaSSIF ([1]; Table 6, prototype SDI) [μgA/mL] | AUC35-210 FaSSIF ([1]; Table 6) [min*μgA/mL] | C210 ([1]; Table 6) [μgA/mL] | Tg [2] [°C] | Tm/Tg ratio ([2]; indicative of moderate physical stability) [K/K] | Compound
1 | very low dissolution performance | – | – | – | – | – | – | – | – | Cn1cc2cc(C(F)(F)c3nnc4ccc(-c5cnn(C6CC6)c5)nn34)c(F)cc2n1 [APL-101, 6-(1-cyclopropylpyrazol-4-yl)-3-[difluoro-(6-fluoro-2-methylindazol-5-yl)methyl]-[1,2,4]triazolo[4,3-b]pyridazine]
2 | – | 8.9 | 1400 | 7.8 | 8.9 | 1400 | 7.8 | 89 | 1.37 | Cn1cc2cc(C(F)(F)c3nnc4ccc(-c5cnn(C6CC6)c5)nn34)c(F)cc2n1 [APL-101 Form B, 6-(1-cyclopropylpyrazol-4-yl)-3-[difluoro-(6-fluoro-2-methylindazol-5-yl)methyl]-[1,2,4]triazolo[4,3-b]pyridazine]

Source: patent publication US20230338294A1, “NOVEL PHARMACEUTICAL FORMULATION FOR C-MET INHIBITOR” (APOLLOMICS INC., priority 2020, published 2023)
